Assay results as given in patent US4900815A, “Sulfated polysaccharide DS4152” (Daiichi Seiyaku Co., Ltd., priority 1986, dated 1990).

Assays:
[1] = tested on: CAM vascularization of chick embryos; assay: CAM Angiogenesis Inhibition Test (Direct Method), combination with cortisone acetate; type: in vivo; settings: 0.5 μg per embryo, alone
Description: Using chick embryos, a test was carried out in accordance with the following method, which was a partial modification of the Taylor-Folkman'smethod Nature, 297, 307 (1982)].
Either DS4152 or heparin dissolved in physiological saline was added to the CAM of each 4-5 day old fertilized chicken 1 egg (species: NORIN CROSS) and then the eggs were incubated at 37° C.
Two days after the addition of the agent, the degree of the CAM vascularization was compared with that of a control to which physiological saline was only added. The 50% vascularization inhibition dose (ID50) was calculated by the probit method.
In the same manner as in Example 2, combination effects of a steroid and DS4152 were examined. […] The activities of DF4639 and H Fraction were also investigated in the comparison with that of DS4152.

[2] = tested on: angiogenesis of the chick CAM; assay: CAM angiogenesis inhibition, various steroids alone or with DS4152; type: in vivo
[3] = tested on: CAM vascularization; assay: Antiangiogenic Effects (Ex Vivo) of steroids with or without DS4152; parameters: species or system chick (blood from male ICR mice); settings: steroid p.o. 5 mg/kg
Description: Male ICR mice were orally administered with a solution of DS4152 dissolved in physiological saline. A saline suspension of a steroid was administered orally or intramuscularly, either in combination with DS4152 or alone. Blood samples collected after 6 hours were prevented from coagulation with a 0.313% aqueous solution of sodium citrate. Each blood sample was added to the 5 day CAM in the same manner as in the direct method. The inhibitory effects were judged after two days. Results were expressed by inhibition ratios (%) of CAM vascularization of each group to that of control group with a blood sample collected from the mice with saline. (Table 11).

[4] = tested on: Sarcoma 180 (S180); assay: Antitumor Test, Sarcoma 180, DS4152 and cortisone acetate; type: in vivo, mouse (male ICR)
Description: Male ICR mice (5 weeks old) were each inoculated subcutaneously with 1×10^6 cells of Sarcoma 180 (S180). From the 3rd day, a saline suspension of cortisone acetate was administered at a dose of 250 mg/kg/day for 3 days and then at a dose of 100 mg/kg/day for 1 day.
DS4152 was dissolved in physiological saline and administered at a dose of 0.61 or 6.1 mg/mouse subcutaneously or orally once a day for 4 days. On the 7th day after the inoculation, the mice were sacrificed to compare their tumor weights with those of the control mice.

[5] = cortisone acetate alone, 250 then 100 mg/kg/day

CC(=O)OCC(=O)[C@@]1(O)CC[C@H]2[C@@H]3CCC4=CC(=O)CC[C@]4(C)[C@H]3C(=O)C[C@@]21C [Cortisone acetate]
influence on vascularization [1]: not to give any influence to the vascularization
degree of increase ([2]; ID50 alone vs. in the presence of 10 ng of DS4152): 7.1 times
ID50, used in combination with DS4152 ([2]; in the presence of 10 ng of DS4152): 0.17 μg/embryo
ID50, alone ([2]; steroid alone): 1.20 μg/embryo
Inhibition rate of angiogenesis ([3]; DS4152 0): 7.7%
Inhibition rate of angiogenesis ([3]; DS4152 30 mg/kg p.o.): 75.1%
T/C [4, 5]: 94.2%
Tumor weight, mean ± standard error [4, 5]: 0.340 ± 0.162
tumor weight compared with saline group ([4]; cortisone acetate only): not different
